Measurements reported in US10617691B2, “Combination of an anti-CD19 antibody and a Bruton's tyrosine kinase inhibitor and uses thereof” (MORPHOSYS AG, priority 2015, dated 2020).

Test system: MEC-1 cells
Experiment: ADCC target cell killing of MEC-1 cells by NK cells (FACS, DAPI positive dead target cells), MOR00208 and Ibrutinib alone and in combination
Assay type: cell-based
Protocol: Cell lines tested: MEC-1 cells (DSMZ # ACC497). Cell lines are tested: chronic B-cell leukemia cell line; JVM-2 (ATCC® CRL-3002) a mantle cell lymphoma cell line; Ramos cells (ATCC number CRL-1596), a human Burkitt's lymphoma cells; HG-3 (DSMZ # ACC765), and CII (DSMZ # ACC773) are a chronic lymphocytic leukemia cell line; Su-DHL 6 (DSMZ # ACC572), U2932 (DSMZ # ACC633) and OCI-LY7 (DSMZ # ACC688) are a Diffuse large B-cell lymphoma (DLBCL) cell line; JVM-2 (ATCC® CRL-3002) is a mantle cell lymphoma cell line; and BALL-1 (DSMZ # ACC742) is an acute lymphoblastic leukemia cell line.
The cytotoxicity of MOR00208 and Ibrutinib alone and in combination were tested in the MEC-1 cell line (CLL). The cytotoxicity of MOR00208 and Ibrutinib alone and in combination are tested in the following target cell lines: JVM-2, Ramos, HG-3, CII, Su-DHL 6, U2932, OCI-LY7, JVM-2 and BALL-1.
Ibrutinib is a covalent inhibitor of Bruton's tyrosine kinase and should abrogate proliferation in target cell lines. MOR00208 targets CD19 and mediates target cell killing via ADCC. Target cell killing is measured using the following parameters: Ibrutinib at a concentration range of between 0.033 and 33 μM, specifically at 0.3 μM, 1.0 μM and 3.0 μM; MOR00208 at a concentration range from 0.001-10 nM, specifically at 0.01 nM, 0.1 nM, and 10 nM, and the combination of MOR00208 and Ibrutinib. The following are used as controls: RefmAb33 or NK cells alone. In the Ibrutinib group as well as in the MOR00208+Ibrutinib combination group, target cells are pre-treated with Ibrutinib for 7 days prior to the ADCC assay measurements. The target cells are counted and stained using 1 μg/ml CFSE end concentration. For DMSO treated target cells, an effector: target (E:T) ratio of 2:1 is chosen, corresponding to a cell density of 5×10^5/ml. The proliferative effect on target cells caused by Ibrutinib treatment was included by adjusting the E:T ratio in inhibitor treated cells. The NK cells are counted and adjusted to 1×10^6/ml. The target cell killing assays were performed as follows: using 96 well plates, 100 μl of target cell suspension was added per well, followed by 100 μl cell suspension of NK cells to each well resulting in an E:T ratio of 2:1. The antibodies were diluted in a range of 10-0.001 nM in medium. Cells were centrifuged and target: effector cell-pellets were re-suspended in 100 μl antibody-containing medium or the according control solution. The assay was incubated for 4 h in CO2-incubator at 37° C. After 10 min incubation on ice, 50 μl DAPI solution was added to each well (final concentration 1 μg/ml) and incubated on ice for 10 min. The cell killing measurements were performed with FACS-Verse. Dead target cells were DAPI positive.
In total, three experiments were performed in order to determine the mediation of ADCC on MEC-1 cells by the combination of MOR00208 and Ibrutinib.
The raw data (% dead cells) are analyzed as follows: 1) from the raw data (% dead cells), the background (controls) are subtracted, resulting in the specific killing for each treatment group; then 2) the specific killing values are normalized by setting the combination of MOR00208+Ibrutinib to 1.
Combination Index (CI) calculations are completed in order to determine synergy of the combination of the exemplified anti-CD19 antibody and Ibrutinib as compared to MOR00208 and Ibrutinib alone. Such calculations are described in Ting-Chao Chou, Theoretical Basis, Experimental Design, and Computerized Simulation of Synergism and Antagonism in Drug Combination Studies, Pharmacol Rev 58:621-681 (2006), which is incorporated by reference in its entirety and Chou T C, Talalay P, Quantitative analysis of dose-effect relationships: the combined effects of multiple drugs or enzyme inhibitors. Adv Enzyme Regul 22: 27-55 (1984), which is incorporated by reference in its entirety. The methods of Chou-Talalay are carried out using the CI-isobol method. […]

[1] = Experiment 1, Ibrutinib at 0.3 μM, MOR00208 0.01 nM, control (0.1% DMSO/Ref33) 25.27
[2] = Experiment 1, Ibrutinib at 0.3 μM, MOR00208 0.1 nM, control (0.1% DMSO/Ref33) 25.27
[3] = Experiment 1, Ibrutinib at 0.3 μM, MOR00208 10 nM, control (0.1% DMSO/Ref33) 25.27
[4] = Experiment 1, Ibrutinib at 1 μM, MOR00208 0.01 nM, control (0.1% DMSO/Ref33) 25.27
[5] = Experiment 1, Ibrutinib at 1 μM, MOR00208 0.1 nM, control (0.1% DMSO/Ref33) 25.27
[6] = Experiment 1, Ibrutinib at 1 μM, MOR00208 10 nM, control (0.1% DMSO/Ref33) 25.27
[7] = Experiment 1, Ibrutinib at 3 μM, MOR00208 0.01 nM, control (0.1% DMSO/Ref33) 25.27
[8] = Experiment 1, Ibrutinib at 3 μM, MOR00208 0.1 nM, control (0.1% DMSO/Ref33) 25.27
[9] = Experiment 1, Ibrutinib at 3 μM, MOR00208 10 nM, control (0.1% DMSO/Ref33) 25.27
[10] = Experiment 2, Ibrutinib at 0.3 μM, MOR00208 0.01 nM, control (0.03% DMSO/Ref33) 9.81
[11] = Experiment 2, Ibrutinib at 0.3 μM, MOR00208 0.1 nM, control (0.03% DMSO/Ref33) 9.81
[12] = Experiment 2, Ibrutinib at 0.3 μM, MOR00208 10 nM, control (0.03% DMSO/Ref33) 9.81
[13] = Experiment 2, Ibrutinib at 1 μM, MOR00208 0.01 nM, control (0.03% DMSO/Ref33) 9.81
[14] = Experiment 2, Ibrutinib at 1 μM, MOR00208 0.1 nM, control (0.03% DMSO/Ref33) 9.81
[15] = Experiment 2, Ibrutinib at 1 μM, MOR00208 10 nM, control (0.03% DMSO/Ref33) 9.81
[16] = Experiment 2, Ibrutinib at 3 μM, MOR00208 0.01 nM, control (0.03% DMSO/Ref33) 9.81
[17] = Experiment 2, Ibrutinib at 3 μM, MOR00208 0.1 nM, control (0.03% DMSO/Ref33) 9.81
[18] = Experiment 2, Ibrutinib at 3 μM, MOR00208 10 nM, control (0.03% DMSO/Ref33) 9.81
[19] = Experiment 3, Ibrutinib at 0.3 μM, MOR00208 0.01 nM, control (0.03% DMSO/Ref33) 16.40
[20] = Experiment 3, Ibrutinib at 0.3 μM, MOR00208 0.1 nM, control (0.03% DMSO/Ref33) 16.40
[21] = Experiment 3, Ibrutinib at 0.3 μM, MOR00208 10 nM, control (0.03% DMSO/Ref33) 16.40
[22] = Experiment 3, Ibrutinib at 1 μM, MOR00208 0.01 nM, control (0.03% DMSO/Ref33) 16.40
[23] = Experiment 3, Ibrutinib at 1 μM, MOR00208 0.1 nM, control (0.03% DMSO/Ref33) 16.40
[24] = Experiment 3, Ibrutinib at 1 μM, MOR00208 10 nM, control (0.03% DMSO/Ref33) 16.40
[25] = Experiment 3, Ibrutinib at 3 μM, MOR00208 0.01 nM, control (0.03% DMSO/Ref33) 16.40
[26] = Experiment 3, Ibrutinib at 3 μM, MOR00208 0.1 nM, control (0.03% DMSO/Ref33) 16.40
[27] = Experiment 3, Ibrutinib at 3 μM, MOR00208 10 nM, control (0.03% DMSO/Ref33) 16.40

Measured: percent (%) dead cells (raw data)

C=CC(=O)N1CCC[C@@H](n2nc(-c3ccc(Oc4ccccc4)cc3)c3c(N)ncnc32)C1 [Ibrutinib, 1-[(3R)-3-[4-amino-3-(4-phenoxyphenyl)-1H-pyrazolo[3,4-d]pyrimidin-1-yl]-1-piperidinyl]-2-propen-1-one]
8.26%: [25] | [26] | [27]
24.33%: [4] | [5] | [6]
8.39%: [13] | [14] | [15]
7.50%: [22] | [23] | [24]
8.56%: [10] | [11] | [12] | [19] | [20] | [21]
10.84%: [16] | [17] | [18]
21.99%: [1] | [2] | [3]
17.07%: [7] | [8] | [9]

B1: MOR00208: anti-CD19 antibody; heavy chain SEQ ID NO: 14, light chain SEQ ID NO: 15 (antibody)
heavy: EVQLVESGGGLVKPGGSLKLSCAASGYTFTSYVMHWVRQAPGKGLEWIGYINPYNDGTKYNEKFQGRVTISSDKSISTAYMELSSLRSEDTAMYYCARGTYYYGTRVFDYWGQGTLVTVSSASTKGPSVFPLAPSSKSTSGGTAALGCLVKDYFPEPVTVSWNSGALTSGVHTFPAVLQSSGLYSLSSVVTVPSSSLGTQTYICNVNHKPSNTKVDKKVEPKSCDKTHTCPPCPAPELLGGPDVFLFPPKPKDTLMISRTPEVTCVVVDVSHEDPEVQFNWYVDGVEVHNAKTKPREEQFNSTFRVVSVLTVVHQDWLNGKEYKCKVSNKALPAPEEKTISKTKGQPREPQVYTLPPSREEMTKNQVSLTCLVKGFYPSDIAVEWESNGQPENNYKTTPPMLDSDGSFFLYSKLTVDKSRWQQGNVFSCSVMHEALHNHYTQKSLSLSPGK
light: DIVMTQSPATLSLSPGERATLSCRSSKSLQNVNGNTYLYWFQQKPGQSPQLLIYRMSNLNSGVPDRFSGSGSGTEFTLTISSLEPEDFAVYYCMQHLEYPITFGAGTKLEIKRTVAAPSVFIFPPSDEQLKSGTASVVCLLNNFYPREAKVQWKVDNALQSGNSQESVTEQDSKDSTYSLSSTLTLSKADYEKHKVYACEVTHQGLSSPVTKSFNRGEC
50.83%: [12] | [15] | [18]
81.30%: [20] | [23] | [26]
72.31%: [2] | [5] | [8]
73.77%: [3] | [6] | [9]
81.41%: [21] | [24] | [27]
52.10%: [11] | [14] | [17]
37.57%: [10] | [13] | [16]
63.68%: [19] | [22] | [25]
56.54%: [1] | [4] | [7]
